From patent US9440982B2 (Eolas Therapeutics, Inc., priority 2012, dated 2016)

Columns and labels:
OX1 = target: T1, OX1 (Homo sapiens, UniProt O43613); assay: Orexin receptor cell-based functional assay, [Ca2+]i by FLIPR, CHO-OX1 cells; conditions: CHO-OX1 cells, [Ca2+]i by FLIPR, antagonist dose-range 0.1 nM-10 μM, EC90 of OXA; read-out: OX1
T1 construct: expressed in transfected cells; host or cells: CHO (CHO-OX1, kept under selection antibiotic)
T1 sequence (O43613 1-425): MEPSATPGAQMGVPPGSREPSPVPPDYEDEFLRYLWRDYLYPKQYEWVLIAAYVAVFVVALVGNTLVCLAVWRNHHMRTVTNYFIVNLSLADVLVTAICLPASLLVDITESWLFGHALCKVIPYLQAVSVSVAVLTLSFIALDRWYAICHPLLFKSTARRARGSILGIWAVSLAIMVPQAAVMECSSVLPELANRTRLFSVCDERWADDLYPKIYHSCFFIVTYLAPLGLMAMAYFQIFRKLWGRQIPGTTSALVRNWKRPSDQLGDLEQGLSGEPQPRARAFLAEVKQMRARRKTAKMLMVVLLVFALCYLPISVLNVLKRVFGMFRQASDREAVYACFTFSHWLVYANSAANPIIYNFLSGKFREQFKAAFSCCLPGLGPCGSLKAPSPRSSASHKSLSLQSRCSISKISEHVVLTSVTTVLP
Outline: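 CHO cells expressing human OX1 or OX2 loaded with calcium dye plus 2.5 mM probenecid at 37° C (calcium4, 30 min, or calcium6, 2 h), then exposed to compounds (0.1 nM-10 μM) for 30 min. Intracellular Ca2+ measured on FLIPR; antagonist format.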

CYP3A4 = target: T2, CYP3A4 (Homo sapiens, UniProt P08684); assay: Cytochrome P450 inhibition assay (midazolam hydroxylation); assay type: in vitro ADME; conditions: human, human liver microsomes, probe midazolam (hydroxylation to 1′-hydroxymidazolam), 10 μM test compound, midazolam at approximately its Km
T2 construct: pre-incubated with human liver microsomes and NADPH; from tissue; host or cells: human liver microsomes
Outline: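 Human liver microsomes; CYP3A4 activity as midazolam 1′-hydroxylation with substrate near Km, with or without 10 μM test compound, read as percent inhibition. For time-dependent inhibition, parallel samples were preincubated 30 min with NADPH before substrate, and percent inhibition compared with non-preincubated samples.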

T2 sequence (P08684 whole entry): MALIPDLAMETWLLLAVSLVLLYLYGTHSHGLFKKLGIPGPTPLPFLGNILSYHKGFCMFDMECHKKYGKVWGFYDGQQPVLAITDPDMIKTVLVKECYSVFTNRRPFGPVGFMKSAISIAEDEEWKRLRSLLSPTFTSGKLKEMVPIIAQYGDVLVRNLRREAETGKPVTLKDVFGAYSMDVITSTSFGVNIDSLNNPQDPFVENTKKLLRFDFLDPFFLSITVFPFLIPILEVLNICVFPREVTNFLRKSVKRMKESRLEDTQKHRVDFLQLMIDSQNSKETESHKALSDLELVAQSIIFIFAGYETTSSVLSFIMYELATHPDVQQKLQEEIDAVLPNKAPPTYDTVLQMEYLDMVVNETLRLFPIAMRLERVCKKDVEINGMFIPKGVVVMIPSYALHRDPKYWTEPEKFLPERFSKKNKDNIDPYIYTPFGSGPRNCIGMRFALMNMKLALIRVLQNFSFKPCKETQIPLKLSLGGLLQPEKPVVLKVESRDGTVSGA

Structure (SMILES)	IC50 (OX1) [nM]	inhibition at 10 µM (CYP3A4) [%]
C[C@@H]1CCCN(C(=O)c2ccccc2-n2nccn2)[C@@H]1CNc1ncc(C(F)(F)F)cn1 [Example A313, (2-(2H-1,2,3-Triazol-2-yl)phenyl)((2S,3R)-3-methyl-2-(((5-(trifluoromethyl)pyrimidin-2-yl)amino)methyl)piperidin-1-yl)methanone]	5	60
C[C@@H]1CCCN(C(=O)c2cc(F)ccc2-c2ncccn2)[C@@H]1CNc1ccc(Cl)cn1 [Example A229, ((2S,3R)-2-(((5-Chloropyridin-2-yl)amino)methyl)-3-methylpiperidin-1-yl)(5-fluoro-2-(pyrimidin-2-yl)phenyl)methanone]	4	72
C[C@@H]1CCCN(C(=O)c2cc(F)c(F)cc2-n2nccn2)[C@@H]1CNc1ncc(Cl)cn1 [Example A247, ((2S,3R)-2-(((5-Chloropyrimidin-2-yl)amino)methyl)-3-methylpiperidin-1-yl)(4,5-difluoro-2-(2H-1,2,3-triazol-2-yl)phenyl)methanone]	> 100	65
Cc1ccc(-n2nccn2)c(C(=O)N2CCC[C@@H](C)[C@H]2CN(C)c2ccc(C(F)(F)F)cn2)n1 [Example A194, ((2S,3R)-3-Methyl-2-((methyl(5-(trifluoromethyl)pyridin-2-yl)amino)methyl)piperidin-1-yl)(6-methyl-3-(2H-1,2,3-triazol-2-yl)pyridin-2-yl)methanone]	6	79
Cc1nc(C(=O)N2CCC[C@@H](C)[C@H]2CNc2ncc(Cl)cn2)c(-c2ccc(F)cc2)s1 [Example A41, ((2S,3R)-2-(((5-Chloropyrimidin-2-yl)amino)methyl)-3-methylpiperidin-1-yl)(5-(4-fluorophenyl)-2-methylthiazol-4-yl)methanone]	4	52
Cc1ccc(-c2ccn(C)c2)c(C(=O)N2CCC[C@@H](C)[C@H]2CNc2ccc(C(F)(F)F)cn2)c1 [Example A6, ((2S,3R)-3-Methyl-2-(((5-(trifluoromethyl)pyridin-2-yl)amino)methyl)piperidin-1-yl)(5-methyl-2-(1-methyl-1H-pyrrol-3-yl)phenyl)methanone]	13	85
Cc1ccc(-n2nccn2)c(C(=O)N2CCC[C@@H](C)[C@H]2CNc2ccc(C(F)(F)F)cn2)n1 [Example A174, ((2S,3R)-3-Methyl-2-(((5-(trifluoromethyl)pyridin-2-yl)amino)methyl)piperidin-1-yl)(6-methyl-3-(2H-1,2,3-triazol-2-yl)pyridin-2-yl)methanone]	1	51
Cc1ccc(-n2ncc(C)n2)c(C(=O)N2CCC[C@@H](C)[C@H]2CNc2ccc(C(F)(F)F)nn2)c1 [Example A125, ((2S,3R)-3-Methyl-2-(((6-(trifluoromethyl)pyridazin-3-yl)amino)methyl)piperidin-1-yl)(5-methyl-2-(4-methyl-2H-1,2,3-triazol-2-yl)phenyl)methanone]	25	75
Cc1ccc(-c2ncccn2)c(C(=O)N2CCC[C@@H](C)[C@H]2CNc2ccc(Cl)cn2)n1 [Example A186, ((2S,3R)-2-(((5-chloropyridin-2-yl)amino)methyl)-3-methylpiperidin-1-yl)(6-methyl-3-(pyrimidin-2-yl)pyridin-2-yl)methanone]	5	53
Cc1ccc(-c2ncccn2)c(C(=O)N2CCC[C@@H](C)[C@H]2CNc2ccc(Cl)cn2)c1 [Example A138, ((2S,3R)-2-(((5-Chloropyridin-2-yl)amino)methyl)-3-methylpiperidin-1-yl)(5-methyl-2-(pyrimidin-2-yl)phenyl)methanone]	12	75
Cc1ccc(-n2ccc(C)n2)c(C(=O)N2CCC[C@@H](C)[C@H]2CNc2ccc(Cl)cn2)c1 [Example A120, ((2S,3R)-2-(((5-Chloropyridin-2-yl)amino)methyl)-3-methylpiperidin-1-yl)(5-methyl-2-(3-methyl-1H-pyrazol-1-yl)phenyl)methanone]	21	90
Cc1ccc(-c2ncccn2)c(C(=O)N2CCC[C@@H](C)[C@H]2CNc2nnc(C(F)(F)F)s2)n1 [Example A187, ((2S,3R)-3-Methyl-2-(((5-(trifluoromethyl)-1,3,4-thiadiazol-2-yl)amino)methyl)piperidin-1-yl)(6-methyl-3-(pyrimidin-2-yl)pyridin-2-yl)methanone]	200	40
C[C@@H]1CCCN(C(=O)c2cc(Cl)ccc2-c2ncccn2)[C@@H]1CNc1ccc(Cl)cn1 [Example A203, (5-Chloro-2-(pyrimidin-2-yl)phenyl)((2S,3R)-2-(((5-chloropyridin-2-yl)amino)methyl)-3-methylpiperidin-1-yl)methanone]	21	70
Cc1ccc(-n2nccn2)c(C(=O)N2CCC[C@@H](C)[C@H]2CNc2ncc(C#N)cn2)c1 [Example A134, 2-((((2S,3R)-3-Methyl-1-(5-methyl-2-(2H-1,2,3-triazol-2-yl)benzoyl)piperidin-2-yl)methyl)amino)pyrimidine-5-carbonitrile]	150	50
Cc1ccc(-c2ncccn2)c(C(=O)N2CCC[C@@H](C)[C@H]2CNc2ncc(C(F)(F)F)cn2)n1 [Example A184, ((2S,3R)-3-Methyl-2-(((5-(trifluoromethyl)pyrimidin-2-yl)amino)methyl)piperidin-1-yl)(6-methyl-3-(pyrimidin-2-yl)pyridin-2-yl)methanone]	5	34
Cc1ccc(-c2nccs2)c(C(=O)N2CCC[C@@H](C)[C@H]2CNc2ccc(C(F)(F)F)cn2)c1 [Example A24, ((2S,3R)-3-Methyl-2-(((5-(trifluoromethyl)pyridin-2-yl)amino)methyl)piperidin-1-yl)(5-methyl-2-(thiazol-2-yl)phenyl)methanone]	11	97
C[C@@H]1CCCN(C(=O)c2cc(Cl)ccc2-n2nccn2)[C@@H]1CNc1ccc(Cl)cn1 [Example A161]	13	68
Cc1ccc(-n2nccn2)c(C(=O)N2CCC[C@@H](C)[C@H]2CNc2ncc(C#N)cn2)n1 [Example A190, 2-((((2S,3R)-3-Methyl-1-(6-methyl-3-(2H-1,2,3-triazol-2-yl)picolinoyl)piperidin-2-yl)methyl)amino)pyrimidine-5-carbonitrile]	2000	24
Cc1ccc(-n2nccn2)c(C(=O)N2CCC[C@@H](C)[C@H]2CNc2ccc(C#N)cn2)n1 [Example A189, 6-((((2S,3R)-3-Methyl-1-(6-methyl-3-(2H-1,2,3-triazol-2-yl)picolinoyl)piperidin-2-yl)methyl)amino)nicotinonitrile]	120	37
C[C@@H]1CCCN(C(=O)c2cc(F)ccc2-c2ncccn2)[C@@H]1CNc1ccc(C(F)(F)F)cn1 [Example A228, (5-Fluoro-2-(pyrimidin-2-yl)phenyl)((2S,3R)-3-methyl-2-(((5-(trifluoromethyl)pyridin-2-yl)amino)methyl)piperidin-1-yl)methanone]	1	72
C[C@@H]1CCCN(C(=O)c2cccc(F)c2-n2nccn2)[C@@H]1CNc1ccc(Cl)cn1 [Example A254, ((2S,3R)-2-(((5-Chloropyridin-2-yl)amino)methyl)-3-methylpiperidin-1-yl)(3-fluoro-2-(2H-1,2,3-triazol-2-yl)phenyl)methanone]	37	63
Cc1ccc(-n2nccn2)c(C(=O)N2CCC[C@@H](C)[C@H]2CNc2cccc(C)n2)c1 [Example A79, ((2S,3R)-3-Methyl-2-(((6-methylpyridin-2-yl)amino)methyl)piperidin-1-yl)(5-methyl-2-(2H-1,2,3-triazol-2-yl)phenyl)methanone]	310	5
Cc1ccc(-n2nccn2)c(C(=O)N2CCC[C@@H](C)[C@H]2CNc2ncc3cc(Br)ccc3n2)c1 [Example A122, ((2S,3R)-2-(((6-Bromoquinazolin-2-yl)amino)methyl)-3-methylpiperidin-1-yl)(5-methyl-2-(2H-1,2,3-triazol-2-yl)phenyl)methanone]	96	72
C[C@@H]1CCCN(C(=O)c2cccc(F)c2-n2nccn2)[C@@H]1CNc1ccc(C(F)(F)F)cn1 [Example A257, (3-Fluoro-2-(2H-1,2,3-triazol-2-yl)phenyl)((2S,3R)-3-methyl-2-(((5-(trifluoromethyl)pyridin-2-yl)amino)methyl)piperidin-1-yl)methanone]	4	69
